Results taken from patent US6054437A, “Method for inducing death of neoplastic cells using piperazine derivatives” (Hitachi Chemical Research Center, Inc., priority 1997, dated 2000).
In brackets after ≈: the same amount, converted by molar mass. Like-named read-outs stand apart in the source and are kept apart here.

Legend:
KB-V-1 (resistant cells) = test: Drug accumulation assay ([3H]-vinblastine), resistant cells; type: cell-based, human
Procedure: (§1) 1. Drug Accumulation Assays
(§2) where the effect of NCO-700 on the uptake of radioactive (^3 H)-vinblastine, an anticancer drug, is measured in cultured cancer cells, that are both drug-resistant and drug-sensitive (Reference 3).
(§3) In the first two in vitro assays, the drug accumulation assay and the cell survival assay, a human pharyngeal carcinoma cell line (KB-V-1) which is highly resistant to anticancer drugs was used. This cell line was developed by Drs. Ira Pastan and Michael Gottesman of the National Cancer Institute, by step-wise selection in colchicine of drug-resistant cells. The control cancer cell line (KB-3), from which the resistant cell lines were derived, is sensitive to anticancer drugs.
Measurement of [^3 H]-vinblastine accumulation was performed by the methods developed in the laboratory of Drs. […] In this method, KB-V-1 and KB-3 cells were plated in 10% fetal bovine serum at a density of 3×10^5 cells per well in 24-well Costar plates. The next day, the growth medium was replaced with Dulbecco's modified Eagle's medium with or without (control cells) 20 μM NCO-700. After ten minutes, the medium was removed and replaced with assay medium (0.5 ml) containing 0.1 μCi, (13 pmol) [^3 H]-vinblastine in the presence or absence of 20 μM NCO-700. After an additional 30 min, the medium was removed, the plates were washed three times in ice-cold phosphate-buffered saline, the cells were detached with trypsin, and radioactivity determined by scintillation counting.

[1] = in vivo; cited from earlier work
KB-V-1 (resistant) [2] = test: Cell survival assay with vinblastine, resistant cells; type: cell-based, human; conditions: Homo sapiens
Procedure: (§4) where the effect of NCO-700 to enhance cancer cell killing by vinblastine was measured.
as §3, with “drugs. The resistant KB-V-1 cell line is approximately 275 times more resistant to vinblastine than the sensitive KB-3 line and has a greatly amplified mdr gene which generates the observed resistance.” for “drugs.”
(§5) The cell survival experiments shown above were performed by plating KB-3 (sensitive) and KB-V-1 (resistant) cells in 32 mm well plastic dishes at a cell density of 300-500 cells per well. Vinblastine and NCO-700 were added 16 hours after the initial cell plating. After 10 days of incubation at 37°, cell colonies were stained and counted.

KB-3 (sensitive) = test: Cell survival assay with vinblastine, sensitive cells; type: cell-based, human; conditions: Homo sapiens, read-out: vinblastine to kill 50% of cells
Procedure: as §4
as §3, with “drugs. The resistant KB-V-1 cell line is approximately 275 times more resistant to vinblastine than the sensitive KB-3 line and has a greatly amplified mdr gene which generates the observed resistance.” for “drugs.”
as §5

KB-V-1 (resistant) [3] = conditions: cited from earlier work
KB-3 (sensitive cells) = test: Drug accumulation assay ([3H]-vinblastine), sensitive cells; type: cell-based, human; conditions: KB-3, control (vinblastine alone)
Procedure: as §1, §2
as §3, with “drugs. The resistant KB-V-1 cell line is approximately 275 times more resistant to vinblastine than the sensitive KB-3 line and has a greatly amplified mdr gene which generates the observed resistance.” for “drugs.”
Measurement of [^3 H]-vinblastine accumulation was performed by the methods developed in the laboratory of Drs. Gottesman and Pastan (Fojo et al., Cancer Res. 45:3002-3007, 1985). […] After an additional 30 min, the medium was removed, the plates were washed three times in ice-cold phosphate-buffered saline, the cells were detached with trypsin, and radioactivity determined by scintillation counting.

[4] = test system: thiol protease, especially calcium-activated neutral protease (CANP); conditions: cited from earlier work

Row | SMILES | vinblastine accumulation (KB-V-1 (resistant cells); KB-V-1, control (vinblastine alone)) | accumulation of vinblastine (in words) (KB-V-1 (resistant cells); drug-resistant cell line) | side effects [1] | IC50 (KB-V-1 (resistant) [2]; KB-V1, read-out: level of vinblastine needed to kill 50% of the tumor cells) [µg/mL] | IC50 (KB-V-1 (resistant) [2]; KB-V1, read-out: vinblastine to kill 50% of cells) [µg/mL] | IC50 (KB-3 (sensitive)) [µg/mL] | resistance to vinblastine, KB-V-1 versus KB-3 (KB-V-1 (resistant) [3]) | vinblastine accumulation (KB-3 (sensitive cells)) | thiol protease inhibitory activity [4]
1 | CC[C@]1(O)C[C@@H]2CN(CCc3c([nH]c4ccccc34)[C@@](C(=O)OC)(c3cc4c(cc3OC)N(C)[C@H]3[C@@](O)(C(=O)OC)[C@H](OC(C)=O)[C@]5(CC)C=CCN6CC[C@]43[C@@H]65)C2)C1 [vinblastine, reference compound] | 0.29 ± 0.03 pmole vinblastine/mg protein | severely restricted | inevitable side effects such as hair loss, weight loss, and liver and kidney damage | 0.825 (≈ 1.02 µM) | 0.792 (≈ 0.977 µM) | 0.0032 (≈ 0.00395 µM) | approximately 275 times | 2.99 ± 0.12 pmole vinblastine/mg protein | 
2 | CCOC(=O)[C@H]1O[C@@H]1C(=O)N[C@@H](CC(C)C)C(=O)NCCC(C)C [EST] |  |  |  |  |  |  |  |  | thiol protease inhibitory activity, especially calcium-activated neutral protease (CANP) inhibitory activity
